Reference: ChEMBL document CHEMBL1649226, “Species identification and antifungal susceptibility patterns of species belonging to Aspergillus section Nigri” (2009)
In brackets after ≈: the same amount, converted by molar mass.

Legend:
Format in all cases: functional
Aspergillus tubingensis [1] = experiment: Antifungal activity against Aspergillus tubingensis isolate CM-3507 obtained from respiratory tract infection of patient after 48 hrs by EUCAST broth dilution method; conditions: isolate CM-3507, 48 h
Aspergillus foetidus [2] = experiment: Antifungal activity against Aspergillus foetidus isolate CM-4995 obtained from prosthesis after 48 hrs by EUCAST broth dilution method; conditions: isolate CM-4995, 48 h
Aspergillus niger [3] = experiment: Antifungal activity against Aspergillus niger isolate CM-3236 obtained from respiratory tract infection of patient after 48 hrs by EUCAST broth dilution method; conditions: isolate CM-3236, 48 h
Aspergillus niger [4] = experiment: Antifungal activity against Aspergillus niger isolate CM-5095 obtained from respiratory tract infection of patient after 48 hrs by EUCAST broth dilution method; conditions: isolate CM-5095, 48 h
Aspergillus tubingensis [5] = experiment: Antifungal activity against Aspergillus tubingensis isolate CM-4005 after 48 hrs by EUCAST broth dilution method; conditions: isolate CM-4005, 48 h
Aspergillus niger [6] = experiment: Antifungal activity against Aspergillus niger isolate CM-4213 obtained from respiratory tract infection of patient after 48 hrs by EUCAST broth dilution method; conditions: isolate CM-4213, 48 h
Aspergillus niger [7] = experiment: Antifungal activity against Aspergillus niger isolate CM-3641 obtained from respiratory tract infection of patient after 48 hrs by EUCAST broth dilution method; conditions: isolate CM-3641, 48 h
Aspergillus niger [8] = experiment: Antifungal activity against Aspergillus niger isolate CM-3551 obtained from respiratory tract infection of patient after 48 hrs by EUCAST broth dilution method; conditions: isolate CM-3551, 48 h
Aspergillus tubingensis [9] = experiment: Antifungal activity against Aspergillus tubingensis isolate CM-4000 after 48 hrs by EUCAST broth dilution method; conditions: isolate CM-4000, 48 h
Aspergillus tubingensis [10] = experiment: Antifungal activity against Aspergillus tubingensis isolate CM-5094 obtained from respiratory tract infection of patient after 48 hrs by EUCAST broth dilution method; conditions: isolate CM-5094, 48 h
Aspergillus tubingensis [11] = experiment: Antifungal activity against Aspergillus tubingensis isolate CM-4352 obtained from respiratory tract infection of patient after 48 hrs by EUCAST broth dilution method; conditions: isolate CM-4352, 48 h
Aspergillus niger [12] = experiment: Antifungal activity against Aspergillus niger isolate CM-3257 obtained from respiratory tract infection of patient after 48 hrs by EUCAST broth dilution method; conditions: isolate CM-3257, 48 h
Aspergillus tubingensis [13] = experiment: Antifungal activity against Aspergillus tubingensis isolate CM-4003 after 48 hrs by EUCAST broth dilution method; conditions: isolate CM-4003, 48 h
Aspergillus tubingensis [14] = experiment: Antifungal activity against Aspergillus tubingensis isolate CM-3125 obtained from respiratory tract infection of patient after 48 hrs by EUCAST broth dilution method; conditions: isolate CM-3125, 48 h
Aspergillus tubingensis [15] = experiment: Antifungal activity against Aspergillus tubingensis isolate CM-3177 obtained from respiratory tract infection of patient after 48 hrs by EUCAST broth dilution method; conditions: isolate CM-3177, 48 h
Aspergillus niger [16] = experiment: Antifungal activity against Aspergillus niger isolate CM-4004 obtained from after 48 hrs by EUCAST broth dilution method; conditions: isolate CM-4004, 48 h
Aspergillus tubingensis [17] = experiment: Antifungal activity against Aspergillus tubingensis isolate CM-4296 obtained from respiratory tract infection of patient after 48 hrs by EUCAST broth dilution method; conditions: isolate CM-4296, 48 h
Aspergillus niger [18] = experiment: Antifungal activity against Aspergillus niger isolate CM-3586 obtained from catheter of patient after 48 hrs by EUCAST broth dilution method; conditions: isolate CM-3586, 48 h
Aspergillus tubingensis [19] = experiment: Antifungal activity against Aspergillus tubingensis isolate CM-3123 obtained from respiratory tract infection of patient after 48 hrs by EUCAST broth dilution method; conditions: isolate CM-3123, 48 h
Aspergillus tubingensis [20] = experiment: Antifungal activity against Aspergillus tubingensis isolate CM-4899 obtained from respiratory tract infection of patient after 48 hrs by EUCAST broth dilution method; conditions: isolate CM-4899, 48 h
Aspergillus tubingensis [21] = experiment: Antifungal activity against Aspergillus tubingensis isolate CM-3585 after 48 hrs by EUCAST broth dilution method; conditions: isolate CM-3585, 48 h
Aspergillus tubingensis [22] = experiment: Antifungal activity against Aspergillus tubingensis isolate CM-4264 obtained from blood culture after 48 hrs by EUCAST broth dilution method; conditions: isolate CM-4264, 48 h
Aspergillus niger [23] = experiment: Antifungal activity against Aspergillus niger isolate CM-3506 obtained from respiratory tract infection of patient after 48 hrs by EUCAST broth dilution method; conditions: isolate CM-3506, 48 h
Aspergillus foetidus [24] = experiment: Antifungal activity against Aspergillus foetidus isolate CM-5264 obtained from respiratory tract infection of patient after 48 hrs by EUCAST broth dilution method; conditions: isolate CM-5264, 48 h
Aspergillus tubingensis [25] = experiment: Antifungal activity against Aspergillus tubingensis isolate CM-4897 obtained from blood culture after 48 hrs by EUCAST broth dilution method; conditions: isolate CM-4897, 48 h
Aspergillus niger [26] = experiment: Antifungal activity against Aspergillus niger isolate CM-3672 obtained from cutaneous layer of patient after 48 hrs by EUCAST broth dilution method; conditions: isolate CM-3672, 48 h
Aspergillus tubingensis [27] = experiment: Antifungal activity against Aspergillus tubingensis isolate CM-3654 obtained from blood culture after 48 hrs by EUCAST broth dilution method; conditions: isolate CM-3654, 48 h
Aspergillus niger [28] = experiment: Antifungal activity against Aspergillus niger isolate CM-4262 after 48 hrs by EUCAST broth dilution method Ophthalmic; conditions: isolate CM-4262, 48 h
Aspergillus tubingensis [29] = experiment: Antifungal activity against Aspergillus tubingensis isolate CM-4688 obtained from respiratory tract infection of patient after 48 hrs by EUCAST broth dilution method; conditions: isolate CM-4688, 48 h
Aspergillus niger [30] = experiment: Antifungal activity against Aspergillus niger isolate CM-3636 obtained from respiratory tract infection of patient after 48 hrs by EUCAST broth dilution method; conditions: isolate CM-3636, 48 h
Aspergillus foetidus [31] = experiment: Antifungal activity against Aspergillus foetidus isolate CM-4002 after 48 hrs by EUCAST broth dilution method; conditions: isolate CM-4002, 48 h
Aspergillus tubingensis [32] = experiment: Antifungal activity against Aspergillus tubingensis isolate CM-3810 obtained from respiratory tract infection of patient after 48 hrs by EUCAST broth dilution method; conditions: isolate CM-3810, 48 h
Aspergillus niger [33] = experiment: Antifungal activity against Aspergillus niger isolate CM-4316 obtained from respiratory tract infection of patient after 48 hrs by EUCAST broth dilution method; conditions: isolate CM-4316, 48 h
Aspergillus tubingensis [34] = experiment: Antifungal activity against Aspergillus tubingensis isolate CM-4001 after 48 hrs by EUCAST broth dilution method; conditions: isolate CM-4001, 48 h

MIC (Aspergillus tubingensis [1]) [µg/mL]	MIC (Aspergillus foetidus [2]) [µg/mL]	MIC (Aspergillus niger [3]) [µg/mL]	MIC (Aspergillus niger [4]) [µg/mL]	MIC (Aspergillus tubingensis [5]) [µg/mL]	MIC (Aspergillus niger [6]) [µg/mL]	MIC (Aspergillus niger [7]) [µg/mL]	MIC (Aspergillus niger [8]) [µg/mL]	MIC (Aspergillus tubingensis [9]) [µg/mL]	MIC (Aspergillus tubingensis [10]) [µg/mL]	MIC (Aspergillus tubingensis [11]) [µg/mL]	MIC (Aspergillus niger [12]) [µg/mL]	MIC (Aspergillus tubingensis [13]) [µg/mL]	MIC (Aspergillus tubingensis [14]) [µg/mL]	MIC (Aspergillus tubingensis [15]) [µg/mL]	MIC (Aspergillus niger [16]) [µg/mL]	MIC (Aspergillus tubingensis [17]) [µg/mL]	MIC (Aspergillus niger [18]) [µg/mL]	MIC (Aspergillus tubingensis [19]) [µg/mL]	MIC (Aspergillus tubingensis [20]) [µg/mL]	SMILES	other results
1.5 (≈ 3.43 µM)	2 (≈ 4.57 µM)	1 (≈ 2.29 µM)	1.5 (≈ 3.43 µM)	4 (≈ 9.14 µM)	0.58 (≈ 1.33 µM)	1 (≈ 2.29 µM)	2 (≈ 4.57 µM)	2 (≈ 4.57 µM)	2 (≈ 4.57 µM)	2 (≈ 4.57 µM)	1 (≈ 2.29 µM)	4 (≈ 9.14 µM)	1.67 (≈ 3.82 µM)	3.33 (≈ 7.61 µM)	1.67 (≈ 3.82 µM)	1.5 (≈ 3.43 µM)	2 (≈ 4.57 µM)	2.67 (≈ 6.1 µM)	2.67 (≈ 6.1 µM)	C[C@@H](c1nc(-c2ccc(C#N)cc2)cs1)[C@](O)(Cn1cncn1)c1ccc(F)cc1F [RAVUCONAZOLE]	MIC (Aspergillus tubingensis [21]): 1.67 µg/mL (≈ 3.82 µM); MIC (Aspergillus tubingensis [22]): 1.5 µg/mL (≈ 3.43 µM); MIC (Aspergillus niger [23]): 1 µg/mL (≈ 2.29 µM); MIC (Aspergillus foetidus [24]): 8 µg/mL (≈ 18.3 µM); MIC (Aspergillus tubingensis [25]): 2 µg/mL (≈ 4.57 µM); MIC (Aspergillus niger [26]): 1.5 µg/mL (≈ 3.43 µM); MIC (Aspergillus tubingensis [27]): 2.5 µg/mL (≈ 5.71 µM); MIC (Aspergillus niger [28]): 2 µg/mL (≈ 4.57 µM); MIC (Aspergillus tubingensis [29]): 3.33 µg/mL (≈ 7.61 µM); MIC (Aspergillus niger [30]): 1 µg/mL (≈ 2.29 µM); MIC (Aspergillus foetidus [31]): 2.67 µg/mL (≈ 6.1 µM); MIC (Aspergillus tubingensis [32]): 2 µg/mL (≈ 4.57 µM); MIC (Aspergillus niger [33]): 1 µg/mL (≈ 2.29 µM); MIC (Aspergillus tubingensis [34]): 2.5 µg/mL (≈ 5.71 µM)
0.62 (≈ 2.13 µM)	0.33 (≈ 1.13 µM)	1 (≈ 3.43 µM)	0.62 (≈ 2.13 µM)	0.25 (≈ 0.858 µM)	0.22 (≈ 0.755 µM)	0.25 (≈ 0.858 µM)	0.25 (≈ 0.858 µM)	0.33 (≈ 1.13 µM)	0.62 (≈ 2.13 µM)	0.31 (≈ 1.06 µM)	1 (≈ 3.43 µM)	1 (≈ 3.43 µM)	0.5 (≈ 1.72 µM)	0.67 (≈ 2.3 µM)	0.13 (≈ 0.446 µM)	0.62 (≈ 2.13 µM)	0.12 (≈ 0.412 µM)	1.17 (≈ 4.01 µM)	0.33 (≈ 1.13 µM)	CN(C/C=C/C#CC(C)(C)C)Cc1cccc2ccccc12 [TERBINAFINE]	MIC (Aspergillus tubingensis [21]): 0.42 µg/mL (≈ 1.44 µM); MIC (Aspergillus tubingensis [22]): 0.5 µg/mL (≈ 1.72 µM); MIC (Aspergillus niger [23]): 0.31 µg/mL (≈ 1.06 µM); MIC (Aspergillus foetidus [24]): 0.5 µg/mL (≈ 1.72 µM); MIC (Aspergillus tubingensis [25]): 0.42 µg/mL (≈ 1.44 µM); MIC (Aspergillus niger [26]): 0.07 µg/mL (≈ 0.24 µM); MIC (Aspergillus tubingensis [27]): 0.63 µg/mL (≈ 2.16 µM); MIC (Aspergillus niger [28]): 0.29 µg/mL (≈ 0.995 µM); MIC (Aspergillus tubingensis [29]): 1.5 µg/mL (≈ 5.15 µM); MIC (Aspergillus niger [30]): 1 µg/mL (≈ 3.43 µM); MIC (Aspergillus foetidus [31]): 0.33 µg/mL (≈ 1.13 µM); MIC (Aspergillus tubingensis [32]): 1 µg/mL (≈ 3.43 µM); MIC (Aspergillus niger [33]): 0.5 µg/mL (≈ 1.72 µM); MIC (Aspergillus tubingensis [34]): 0.56 µg/mL (≈ 1.92 µM)

SMILES	MIC (Aspergillus tubingensis [1]) [µg/mL]	MIC (Aspergillus foetidus [2]) [µg/mL]	MIC (Aspergillus niger [3]) [µg/mL]	MIC (Aspergillus niger [4]) [µg/mL]	MIC (Aspergillus tubingensis [5]) [µg/mL]	MIC (Aspergillus niger [6]) [µg/mL]	MIC (Aspergillus niger [7]) [µg/mL]	MIC (Aspergillus niger [8]) [µg/mL]	MIC (Aspergillus tubingensis [9]) [µg/mL]	MIC (Aspergillus tubingensis [10]) [µg/mL]	MIC (Aspergillus tubingensis [11]) [µg/mL]	MIC (Aspergillus niger [12]) [µg/mL]	MIC (Aspergillus tubingensis [13]) [µg/mL]	MIC (Aspergillus tubingensis [14]) [µg/mL]	MIC (Aspergillus tubingensis [15]) [µg/mL]	MIC (Aspergillus niger [16]) [µg/mL]	MIC (Aspergillus tubingensis [17]) [µg/mL]	MIC (Aspergillus niger [18]) [µg/mL]	MIC (Aspergillus tubingensis [19]) [µg/mL]	MIC (Aspergillus tubingensis [20]) [µg/mL]	other results
C[C@@H](c1ncncc1F)[C@](O)(Cn1cncn1)c1ccc(F)cc1F [VORICONAZOLE]	1 (≈ 2.86 µM)	2 (≈ 5.73 µM)	0.5 (≈ 1.43 µM)	0.75 (≈ 2.15 µM)	2 (≈ 5.73 µM)	0.33 (≈ 0.945 µM)	1 (≈ 2.86 µM)	1 (≈ 2.86 µM)	2 (≈ 5.73 µM)	0.75 (≈ 2.15 µM)	0.88 (≈ 2.52 µM)	1 (≈ 2.86 µM)	2 (≈ 5.73 µM)	1 (≈ 2.86 µM)	2 (≈ 5.73 µM)	1 (≈ 2.86 µM)	1 (≈ 2.86 µM)	1 (≈ 2.86 µM)	1.67 (≈ 4.78 µM)	2 (≈ 5.73 µM)	MIC (Aspergillus tubingensis [21]): 1 µg/mL (≈ 2.86 µM); MIC (Aspergillus tubingensis [22]): 1 µg/mL (≈ 2.86 µM); MIC (Aspergillus niger [23]): 0.75 µg/mL (≈ 2.15 µM); MIC (Aspergillus foetidus [24]): 2 µg/mL (≈ 5.73 µM); MIC (Aspergillus tubingensis [25]): 2 µg/mL (≈ 5.73 µM); MIC (Aspergillus niger [26]): 1 µg/mL (≈ 2.86 µM); MIC (Aspergillus tubingensis [27]): 2 µg/mL (≈ 5.73 µM); MIC (Aspergillus niger [28]): 2 µg/mL (≈ 5.73 µM); MIC (Aspergillus tubingensis [29]): 2 µg/mL (≈ 5.73 µM); MIC (Aspergillus niger [30]): 0.5 µg/mL (≈ 1.43 µM); MIC (Aspergillus foetidus [31]): 2 µg/mL (≈ 5.73 µM); MIC (Aspergillus tubingensis [32]): 2 µg/mL (≈ 5.73 µM); MIC (Aspergillus niger [33]): 0.5 µg/mL (≈ 1.43 µM); MIC (Aspergillus tubingensis [34]): 1.75 µg/mL (≈ 5.01 µM)
